In patent publication US20130267757A1, “ANTH[…] USE AS RADIOS[…] CANCER TREATMENT” (Sensit Science Ltd., priority 2010, published 2013):
“Also recorded” adds a separate entry of the source.

Key:
[1] = test system: C6 Rat-Glioma grown in monolayer; test: AlamarBlue cell proliferation assay after radiosensitizer and irradiation, C6 monolayer; assay type: cell-based; conditions: 0.1 μM
Protocol: The following cell lines were originally obtained from the American Type Culture collection (ATTC):
(§1) Rat glioma cell line: C6 (ATCC number: CCL107)
(§2) Human colorectal cancer cell line: HT-29 (ATCC number: HTB-38). All cells were cultured routinely in DMEM supplemented with 10% FCS.
(§3) Three hypericin derivatives were used in the assay, including hypericin tetrasulfonic acid (HyTS); Tetrabromo hypericin (TBrHy); and Hexamethyl hypericin (HxMeHy). In addition, as control, hypericin and/or Photofrin II as well as cells exposed only to radiation, i.e. without a radiosensitizing agent.
(§4) The hypericin, hypericin derivatives and photofrin II were used in doses ranging from 0.1 μM up to 2 μM. All compounds were dissolved in DMSO, and were protected from light.
(§5) In all cases, control and tumor cells were exposed to ionizing radiation (Siemens X-ray device with 250 kV or with LINAC) at 24 h after the incubation with Hyperecin, Photofrin II or Hypericin derivatives indicated below. […] The response of the tumor to the radiation treatment was evaluated by determining growth delay using the described cell proliferation assay.
(§6) Cell proliferation assay using AlamarBlue
(§7) Unless indicated otherwise, the tumor cell lines were cultured at a starting density of 1×10^5 cells/mL in DMEM and 10% FCS. […] Absorbance was measured at 570 nm and 600 nm using a micro-titer plate reader. […]

[2] = test system: C6 Rat-Glioma grown as cancer stem cells spheres; test: AlamarBlue cell proliferation assay after radiosensitizer and irradiation, C6 cancer stem cell spheres; assay type: cell-based; conditions: 0.1 μM; irradiation 10 Gy; 5 days post irradiation; FIG. 3B, P<0.049
Protocol: as §1
To obtain tumor stem cells, cells were cultured in stem cell conditioned media. Briefly, breast and glioma cancer cells were cultured in serum-free DMEM media containing […] bovine insulin, 100 μg/ml human transferrin, 100 μg/ml BSA, 60 ng/ml progesterone, 16 μg/ml putrescine, 40 μg/ml sodium selenite, 63 μg/ml N-acetylcysteine, 5 μM forskolin, 50 units/ml penicillin, and 50 μg/ml streptomycin, 10 ng/ml bFGF, and 10 ng/ml PDGF. In all experiments, cells were maintained in 100 mm or 96 well plate culture dishes at 37° C. in a humidified […] and were protected from light.
Three hypericin derivatives were used in the assay, including hypericin tetrasulfonic acid (HyTS); Tetrabromo hypericin (TBrHy); and Hexamethyl hypericin (HxMeHy). […]
as §5, with “assay. […]” for “assay.”
as §7

[3] = test system: Dayo-human Glioma tumor; test: AlamarBlue cell proliferation assay after radiosensitizer and irradiation, Dayo; assay type: cell-based; conditions: 0.1 μM; FIG. 4B, P<0.01
Protocol: Human glioma cell lines: Daoy (ATCC number: HTB-186) and
as §2, §3, §4
(§8) In all cases, control and tumor cells were exposed to ionizing radiation (Siemens X-ray device with 250 kV or with LINAC) at 24 h after the incubation with Hyperecin, Photofrin II or Hypericin derivatives indicated below. The total delivered radiation dose was a 10 Gy, provided in a single irradiation session on the second day of culture. The response of the tumor to the radiation treatment was evaluated by determining growth delay using the described cell proliferation assay.
as §6, §7

[4] = test system: MCF-7 human breast carcinoma; test: AlamarBlue cell proliferation assay after radiosensitizer and irradiation, MCF-7 monolayer; assay type: cell-based; conditions: 1 μM
Protocol: (§9) Human breast carcinoma: MCF-7 (ATCC number: HTB-22); MDA-MB-231 (ATCC number: HTB-26)
as §2, §3, §4
as §8, with “assay. […]” for “assay.”
as §7

[5] = test system: MD-MB-231-human breast carcinoma; test: AlamarBlue cell proliferation assay after radiosensitizer and irradiation, MDA-MB-231; assay type: cell-based; conditions: 1 μM; FIG. 4C, P<0.05
Protocol: as §9, §2, §3, §4
as §8, with “assay. […]” for “assay.”
as §7

[6] = test system: HT29-human colon carcinoma; test: AlamarBlue cell proliferation assay after radiosensitizer and irradiation, HT29; assay type: cell-based; conditions: FIG. 4E, P<0.05
Protocol: as §2, §3, §4, §8, §6, §7

[7] = test system: HT29-colon cancer grown in monolayer; test: Example 2B AlamarBlue proliferation, HT29 linear cells; assay type: cell-based, human; conditions: 0.1-2 μM; single dose 10 Gy; FIG. 6A
Protocol: (§10) Linear cell (Lin) HT29 and MCF7 human breast carcinoma, were obtained from the American Type Culture Collection (ATCC).
(§11) Cells were cultured in Dulbecco's Modified Eagle Medium (DMEM), supplemented with 10% fetal calf serum (FCS) and antibiotics.
(§12) Three photosensitizing agents were used, Hypericin (Hy), Tetrabromo hypericin (TBrHy), and hypericin tetrasulfonic acid (HyTS) in the following concentrations: 0.1 μM, 1 μM and 2 μM. Drugs were protected from light for all time. Control cells were treated with 0.1% DMSO (vehicle).
(§13) Linear and CSC were exposed to 3 Gy irradiation daily for four consecutive days or to a single dose of 10 Gy radiation. Radiation was initiated one day after treatment with the hypericin or hypericin derivatives.
(§14) Linear and CSCs were cultured in a 96 plate in triplicates. Each cell line was treated with the three radiosensitizing agents in the indicated doses. In addition culture cells were exposure to radiation. A day before the irradiation, the radiosensitizing agents were added to the culture. Cells were allowed to grow over a period of 5 days using the method of AlamarBlue™ reduction assay. 10% Alamar Blue solution added to each well. Cells viability was measured using Eliza Reader at two different wavelengths: 570 nm and 600 nm, and the appropriate equation was calculated to reflect cell viability.

[8] = test system: HT29-colon cancer grown as cancer stem cells spheres; test: Example 2B AlamarBlue proliferation, HT29 cancer stem cells; assay type: cell-based, human; conditions: 0.1-2 μM; single dose 10 Gy; FIG. 6B; compared with monolayer
Protocol: as §10
(§15) Enrichment of the cancer stem cells (CSCs) population was done by incubating linear cells in a DMEM/F-12 (HAM) 1:1 medium supplement with Insulin-Transferin-Soldium Selenite, and growth factors specific for each cell line. Cells considered enriched for CSCs after 10-15 days in CSCs medium.
as §12, §13
as §14, with “Cells were allowed to grow over a period of 5 days using the method of AlamarBlue™ reduction assay. 10% Alamar Blue solution added to each well.” left out

[9] = test system: MCF-7 human breast carcinoma grown as monolayer; test: Example 2B AlamarBlue proliferation, MCF7 linear cells; assay type: cell-based; conditions: 0.1-2 μM; single dose 10 Gy; FIG. 6C
Protocol: as §10, §11, §12, §13, §14

[10] = test system: MCF-7 human breast carcinoma grown as cancer stem cells spheres; test: Example 2B AlamarBlue proliferation, MCF7 cancer stem cells; assay type: cell-based; conditions: for inhibiting proliferation of MCF7 human breast cancer cells grown as stem cells: 0.1-2 μM, single dose 10 Gy, FIG. 6D; for effect in MCF7 cancer stem cells compared with monolayer: FIGS. 6C and 6D
Protocol: as §10, §15, §12, §13, §14

[11] = Treatment toxicity: body weight and overall behaviour (Example 4A); assay type: in vivo, nude mice; conditions: 10 mg/kg; for tolerability of treatment: alone or in combination with radiation, nude mice; for change in mice body weight and mice behaviour: measured twice weekly
Protocol: (§16) Mice injected with 5% DMSO vehicle served as the control untreated group. Immediately after the injections, the mice were placed in the dark. For each group of radiosensitizing agent treated mice, half of the treated mice were then treated with a 10 Gy dose of radiation, initiated two hours after the administration of the radiosensitizing agents.
Treatment toxicity was evaluated using two parameters, (i) measuring mice's body weight and (ii) monitoring overall mice behaviour, both parameters were measured twice weekly.

[12] = test system: U87 human glioma tumors; conditions: 10 mg/kg + 10 Gy radiation; CB.17 SCID mice; FIG. 8A
Protocol: U87 human glioma cells at a concentration of 5×10^6 were implanted into the flank of eight to ten weeks old CB.17 SCID mice (n=4-5 mice per group).
Treatment was initiated when the tumors reached a size of 100-150 mm^3, and included the following treatment groups:
Specifically, mice were injected with the radiosensitizing agent, and immediately placed in the dark. Radiation was initiated two hours after radiosensitizing administration. Mice were kept in the dark for the following 72 hours, in order to minimize the effect of light on the traces of the radiosensitizing agents. Tumor volume was monitored prior to treatment and thereafter twice weekly.

[13] = test system: PANC01 human pancreatic adenocarcinoma cells; test: PANC01 human pancreatic adenocarcinoma tumors in CB.17 SCID mice, tumor volume (Example 4C); assay type: in vivo; conditions: 10 mg/kg + 10 Gy radiation; for tumor volume of PANC1 pancreatic tumors, agent with radiation: CB.17 SCID mice, FIG. 8B
Protocol: Mice were injected with the radiosensitizing agent, and immediately after were placed in the dark. Radiation was conducted 2 hours after radiosensitizing administration. […] Tumor volume was measured prior to the treatment and thereafter twice weekly.

[14] = test system: U87 Tumors; conditions: during the 2 hours prior to radiation
Protocol: U87 Tumors were implanted subcutaneously in nude mice and then examined under a UV light lamp and the colour intensity was visualized.
(§17) These studies were aimed at assessing the localization of radiosensitizing agents and were conducted by two complementary techniques; the first in implanted U87 human glioma tumors using UV lamp and the second in extracted U87 tumors using Flow Cytometry techniques.

[15] = test system: U87 Tumors; conditions: wavelength of 665 nm; with or without radiation
Protocol: U87 Tumors were resected when tumors reached end-point (1500 mm^3), minced, and digested in 4 mg/ml collagenase III, 2 mg/ml hyaluronidase, and 2 mg/ml collagenase IV in serum free DMEM, for 20 min, at 37° C. Cells were then filtered through a 40 μm sieve, and washed twice with PBS to obtain single U87 cell suspension.
The single U87 tumor cell suspensions were then acquired on Cyan ADP flow cytometer (Beckman Coulter) and analyzed with Summit (Beckman Coulter) software.
The FL8 channel, (wavelength of 655/20 nm) was used to detect differences between positive and negative cells. From each sample, at least 50,000 cells were acquired.
as §17

[16] = brain sections of treated mice, fluorescence 550-650 nm
[17] = test system: U87 human glioma tumors; test: U87 human glioma tumors implanted in nude mice, tumor growth (Example 4A); assay type: in vivo; conditions: 10 mg/kg + 10 Gy radiation
Protocol: as §16
Overall, eight groups of treatment were evaluated as follows:
Tumor growth was evaluated by measuring the tumor's volume twice weekly.

Row | Structure (SMILES) | inhibiting proliferation of MCF7 human breast cancer cells grown as monolayer [9] | inhibiting proliferation of MCF7 human breast cancer cells grown as stem cells [10] | effect in MCF7 cancer stem cells compared with monolayer [10] | tolerability of treatment [11] | change in mice body weight and mice behaviour [11] | tumor volume of PANC1 pancreatic tumors, agent with radiation [13] | colour of tumors under UV light [14] | fluorescent signal of tumor cells by flow cytometry [15] | BBB penetration [16] | also measured
1 | COc1cc(C)c2c3c(C)cc(OC)c4c(=O)c5c(OC)cc(OC)c6c7c(OC)cc(OC)c8c(=O)c1c2c(c87)c(c43)c56 [HxMeHy, Hexamethyl hypericin] |  |  |  |  |  |  |  |  |  | radiosensitizing effect on C6 brain cancer (proliferation on day 5) ([1]; FIG. 4A): effective radiosensitizing agent; proliferation of C6 glioma cells in monolayer (AlamarBlue, fold increase) ([1]; irradiation 10 Gy, 5 days post irradiation, FIG. 3A, P<0.05): statistically inhibited the proliferation; proliferation of C6 glioma cells grown as CSCs (AlamarBlue, fold increase) [2]: statistically inhibited the proliferation; radiosensitizing effect on Dayo tumor (proliferation on day 5) [3]: effective radiosensitizing agent
2 | Cc1c(S(=O)(=O)O)c(O)c2c(=O)c3c(O)c(S(=O)(=O)O)c(O)c4c5c(O)c(S(=O)(=O)O)c(O)c6c(=O)c7c(O)c(S(=O)(=O)O)c(C)c8c1c2c(c34)c(c78)c65 [HyTS, hypericin tetrasulfonic acid] | effective in inhibiting the proliferation | effective in inhibiting the proliferation | more pronounced | well tolerated | no significant change | anti-tumor activity | colored in red | fluorescent signal was detected | does not penetrate the BBB | radiosensitizing effect on breast cancer MCF-7 (proliferation on day 5) ([4]; FIG. 4D, P<0.01): statistically significantly effective; proliferation of MCF-7 breast cancer cells grown as monolayer (AlamarBlue, fold increase) ([4]; irradiation 10 Gy, 5 days post radiation, FIG. 3C, P<0.03): statistically inhibited the proliferation; radiosensitizing effect on breast cancer MD-MB-231 (proliferation on day 5) [5]: statistically significantly effective; radiosensitizing effect on colon cancer HT29 (proliferation on day 5) ([6]; 1 μM): effective radiosensitizing agents; radiosensitizing HT-29 colon cancer cells (monolayer) [7]: effective in radiosensitizing; sensitivity of HT-29 colon cancer stem cells to treatment [8]: more sensitive; tumor volume of U87 tumors, agent with radiation [12]: anti-tumor activity; anti-tumor activity in PANC1 pancreatic tumors compared with U87 [13]: somewhat better activity
3 | Cc1c(Br)c(O)c2c(=O)c3c(O)c(Br)c(O)c4c5c(O)c(Br)c(O)c6c(=O)c7c(O)c(Br)c(C)c8c1c2c(c34)c(c78)c65 [TBrHy, Tetrabromo hypericin] | effective in inhibiting the proliferation | effective in inhibiting the proliferation | more pronounced | well tolerated | no significant change | most potent radiosensitizing agent; also recorded: enhanced anti-tumor activity | colored in red | fluorescent signal was detected | penetrated the BBB | radiosensitizing effect on colon cancer HT29 (proliferation on day 5) ([6]; 0.1 μM): effective radiosensitizing agents; tumor growth of U87 tumors, agent combined with radiotherapy ([17]; nude mice, FIG. 7): most effective radiosensitizing agent; also recorded: better anti-tumor activity; tumor removal in one mouse ([17]; one mouse, 4 days after treatment): completely removed
